Results reported in US9248202B2, “Two-photon probe for detecting copper(II) ion and quantitative estimation of copper(II) ion in human tissue using the same” (Korea University Research and Business Foundation, priority 2014, dated 2016).
In brackets after ≈: the same amount, converted by molar mass.

How the values were obtained:
[1] = system: human colon tissue; assay: Quantitative estimation of copper(II) ion in human colon tissue by TPM; settings: for average Ired/Iblue ratio: 20 μM ACCu2
Text: Colon slices were obtained from outpatients who underwent elective colonoscopies at the Korea University Medical Center Anam Hospital. The volunteers were recruited to participate in the experiment, which was approved by the hospital ethics committee, and all the participating patients provided informed consents. The patients who had known or suspected bleeding disorders, an international normalized ratio of prothrombin time exceeding 1.4 a platelet count of <100,000 or who had taken aspirin within the previous 5 days were excluded.
During the colonoscopy examination, tissues were obtained from malignant lesions, adenomas and normal mucosa by biopsy forceps. Normal colon mucosal and adenoma or adenocarcinoma tissues were collected from the same patient. Standard biopsy forceps (Olympus Medical Systems Corporation, Tokyo, Japan) were used to obtain paired mucosal pinch biopsy specimens from the colon. 28, 10 and 6 tissue samples were acquired from normal, polyp and cancer tissues, respectively. The tissues were placed in sterile specimen bottles containing PBS. Half of the normal tissue samples were treated with EDTA (1 M) for 40 minutes. Then, the tissue samples were stained with 20 μM ACCu2 in artificial spinal fluid for 1-2 hours at 37.8° C. and then imaged.
As a result, clinical important images were obtained at depths of 90-190 μm in the mucosal and submucosal layers, as shown in FIG. 11(a).

[2] = system: HeLa cells; assay: Two-photon microscopy of ACCu2-labeled HeLa cells, copper(II) ion estimation; assay type: cell-based, human; settings: for free copper(II) ion concentration: from Ired/Iblue ratio and titration curve
Text: The two curves were similar to the TPEF spectra of HeLa cells labeled with FL and IR. And, the OP-excited fluorescence (OPEF) spectra of FL and IR measured in EtOH/HEPES (9/1 v/v, pH=7.0) (see Table 1 and FIG. 1) confirmed that this solvent is a good model of the intracellular environment.
In order to investigate the utility of ACCu2 in living cells, TPM images of ACCu2-labeled HeLa cells and tissues were obtained using spectral confocal and multiphoton microscopes (Leica TCS SP2) with ×100 (NA=1.30 OIL) and ×40 (NA=0.75 DRY) objective lenses.
The TPM images were obtained with the DM IRE2 microscope (Leica) by exciting the probes with a mode-locked titanium-sapphire laser source (Coherent Chameleon, 90 MHz, 200 fs) set at a wavelength of 780 nm and an output power of 1305 mW. To obtain images at 400-650 nm, internal PMTs were used to collect signals in 8-bit unsigned 512×512 pixels at a scan rate of 400 Hz.
HeLa human cervical carcinoma cells were acquired from the ATCC (Manassas, Va., USA). The cells were cultured in DMEM (WelGene, Inc., Seoul, Korea) supplemented with heat-inactivated 10% FBS (WelGene), penicillin (100 units/mL) and streptomycin ([…]), All the cell lines were maintained in a humidified atmosphere of 5% CO2 and 95% air at 37° C. Two days before imaging, the cells were moved and plated onto glass-bottomed dishes (MatTek), For labeling, the growth medium was removed and replaced with FBS-free DMEM. The cells were incubated with 3 μM ACCu2 for 20 minutes at 37° C., washed 3 times with FBS-free DMEM and imaged.
Ratiometric images were constructed from the TPEF intensities collected in the two channels (FIG. 9(a)-(c)). The Ired/Iblue ratio for the ACCu2-labeled HeLa cells was measured as 9.9±0.8 (FIG. 9(d)). The ratio decreased to 6.5 upon addition of copper(II) ion (200 μM) and pyrrolidine dithiocarbamate (PDTC, 100 μM) due to accumulation of copper(II) ion inside the cells, and increased to 9.8 upon treatment with ethylenediaminetetraacetic acid (EDTA, 100 μM), a […] metal on chelator that effectively removes copper(II) ion.
Since Iblue remains constant, ACCu2 according to the present disclosure can measure the Ired/Iblue ratio more accurately than the existing probe which requires the measurements of the changes in both Ired and Iblue. The free copper(II) ion concentration was calculated as 0.0±0.7 μM (FIG. 9(a)), 15±2 μM (FIG. 9(b)) and 0.0±1.9 μM (FIG. 9(c)) from the Ired/Iblue ratio and the titration curve shown in FIG. 5(b).

[3] = Solubility in HEPES buffer by fluorescence method; assay type: physicochemical; settings: aqueous buffer; HEPES buffer ([HEPES]=20 mM, pH 7.0)
Experimental: (hereinafter, ‘ACCu2’), a compound of [Chemical Formula 12] (hereinafter, ‘FL’) and a compound of [Chemical Formula 13] (hereinafter, ‘IR’) in 1,4-dioxane, DMF, ethanol, EtOH/HEPES (9:1) and HEPES buffer ([HEPES]=20 mM, pH 7.0). Excitation wavelength was 420 nm. The solubility of ACCu2 in HEPES buffer ([HEPES]=20 mM, pH 7.0) as determined by the fluorescence method described in the literature (Kim, H. M.; Choo, H. J.; Jung, S. Y.; Ko, Y. G.; Park, W. H.; Jeon, S. J.; Kim, C. H.; Joo, T. H.; Cho, B. R. Chem Bio Chem 2007, 8, 553) was 8.0 μM, which was sufficient to stain cells.

[4] = EDTA-treated normal colon tissue
[5] = ACCu2-labeled HeLa cells, 750 nm TP excitation, scanning lambda mode

## COCCOCCOCCOc1ccc2c(ccc3cc(C(=O)N4CCN(C(=O)c5ccc(CNC(=O)c6cc7cc8ccc(N(C)C)cc8cc7oc6=O)nc5)CC4)c(=O)oc32)c1 [ACCu2]
[1]; [4]
  copper(II) ion concentration: 0.0 ± 0.1 µM
  average Ired/Iblue ratio: 10.0±0.3
[1]; cancer colon tissue
  copper(II) ion concentration: 22 ± 3 µM
  average Ired/Iblue ratio: 5.2±0.6
[1]; normal colon tissue
  copper(II) ion concentration: 8.2 ± 0.3 µM
  average Ired/Iblue ratio: 8.3±0.4
[1]; polyp colon tissue
  copper(II) ion concentration: 13 ± 2 µM
  average Ired/Iblue ratio: 7.2±0.5
[2]; [5]
  TPEF emission maximum, first Gaussian function (solid curve): 470 nm
  TPEF emission maximum, second Gaussian function (dotted curve): 582 nm
[2]; ACCu2-labeled HeLa cells, before addition of copper(II) ion
  Ired/Iblue ratio: 9.9±0.8
[2]; HeLa cells, FIG. 9(a)
  free copper(II) ion concentration: 0.0 ± 0.7 µM
[2]; HeLa cells, FIG. 9(b)
  free copper(II) ion concentration: 15 ± 2 µM
[2]; HeLa cells, FIG. 9(c)
  free copper(II) ion concentration: 0.0 ± 1.9 µM
[2]; HeLa cells, after copper(II) ion (200 μM) and PDTC (100 μM)
  Ired/Iblue ratio: 6.5
[2]; HeLa cells, after further treatment with EDTA (100 μM)
  Ired/Iblue ratio: 9.8
[3]
  solubility: 8 µM (≈ 6.96 µg/mL)
